From paper PMC6858373 (Scientific Reports, 2019)
pEC50: −log10 of the molar value. Where a name gives a salt, the structure may show the parent alone. Read-outs that look alike come from different tables or passages of the source.

Legend:
in vitro = details: human
[1] = target: full-length P. pyralis luciferase (Photinus pyralis, UniProt P08659, K549A/L550V/N119G/N50D/S548I); assay type: cell-based
Clone V cells = details: human
[2] = target: T1, FGF14:Nav1.6 C-tail complex (Homo sapiens, UniProt Q92915+Q9UQD0); assay: Split-luciferase complementation assay (LCA) in Clone V double stable HEK293 cells; assay type: cell-based; details: for Z-score (LCA primary screening): 30 µM, average of primary screening (n = 2), vs on-plate 0.3% DMSO; for Z-score (LCA primary screening) / EMax (% Luminescence): 384-well; for EMax (% Luminescence): agonists, Clone V cells, normalized to DMSO
T1 construct: polymerase chain reaction (PCR) amplification of the FGF14 open reading frame (nt 1–855); C-terminal fragment of Nav1.6 (amino acids 1763–1976) fused with CD4ΔC-tail (amino acids 1–395); expressed in transfected cells

[3] = CC_NCI screening, normalized to on-plate 0.3% DMSO controls
[4] = CC_NCI screening, biological replicate Set 1, normalized to on-plate 0.3% DMSO controls
[5] = CC_NCI screening, biological replicate Set 2, normalized to on-plate 0.3% DMSO controls
[6] = CC_NCI screening, biological replicate Set 1, normalized to on-plate 0.3% DMSO controls (n=16 per plate)
[7] = CC_NCI screening, biological replicate Set 2, normalized to on-plate 0.3% DMSO controls (n=16 per plate)
[8] = average of Set 1 and Set 2, normalized to 0.3% DMSO controls

T1 sequence (Q92915 1-252 isoform Q92915-2): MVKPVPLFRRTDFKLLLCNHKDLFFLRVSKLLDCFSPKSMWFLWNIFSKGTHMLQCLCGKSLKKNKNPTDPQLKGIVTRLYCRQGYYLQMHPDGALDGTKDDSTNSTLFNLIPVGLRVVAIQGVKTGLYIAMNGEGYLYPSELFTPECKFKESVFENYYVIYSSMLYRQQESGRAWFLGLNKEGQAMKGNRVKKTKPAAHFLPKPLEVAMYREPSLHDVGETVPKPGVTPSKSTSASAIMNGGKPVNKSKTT
T1 sequence (Q9UQD0 1763-1976 limits assumed): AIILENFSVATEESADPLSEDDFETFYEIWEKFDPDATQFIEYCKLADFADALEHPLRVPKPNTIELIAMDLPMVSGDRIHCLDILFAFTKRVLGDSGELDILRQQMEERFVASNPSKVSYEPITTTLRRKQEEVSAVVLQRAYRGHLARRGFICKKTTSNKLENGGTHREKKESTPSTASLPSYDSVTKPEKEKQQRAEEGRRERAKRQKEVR
full-length P. pyralis luciferase, sequence (P08659 whole entry N50D/N119G/S548I/K549A/L550V, looked up): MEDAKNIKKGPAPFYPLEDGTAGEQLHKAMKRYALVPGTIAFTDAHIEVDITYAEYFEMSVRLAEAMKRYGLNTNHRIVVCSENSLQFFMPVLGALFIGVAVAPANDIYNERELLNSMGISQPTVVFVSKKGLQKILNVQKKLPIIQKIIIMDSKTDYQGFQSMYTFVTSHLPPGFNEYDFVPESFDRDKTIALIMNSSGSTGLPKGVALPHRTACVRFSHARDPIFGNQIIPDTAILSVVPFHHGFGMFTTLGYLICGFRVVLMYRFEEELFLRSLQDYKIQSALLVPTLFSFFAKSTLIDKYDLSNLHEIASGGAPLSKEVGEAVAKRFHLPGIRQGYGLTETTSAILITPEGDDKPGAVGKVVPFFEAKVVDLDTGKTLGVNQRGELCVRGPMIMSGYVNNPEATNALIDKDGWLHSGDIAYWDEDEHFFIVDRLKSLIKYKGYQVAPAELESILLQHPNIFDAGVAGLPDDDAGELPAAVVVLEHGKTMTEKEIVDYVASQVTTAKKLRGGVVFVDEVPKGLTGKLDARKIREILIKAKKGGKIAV

SMILES	viability (in vitro)	Luciferase Assay % Lum (full-length luciferase counter-screen) [1, 3]	Luciferase Assay Z-score (full-length luciferase counter-screen) [1, 3]	Toxicity Assay Z-score (CTB cell viability) (Clone V cells)	Split Luciferase Assay Z-score Set 1 [2, 4]	Split Luciferase Assay Z-score Set 2 [2, 5]	viability at 16 h, 30 µM (in vitro)	Toxicity Assay Z-score (CTB cell viability) (Clone V cells; 16 h, 30 µM)	Split Luciferase Assay % Lum Set 1 [2, 6]	Split Luciferase Assay %Lum Set 2 [2, 7]	Split Luciferase Assay %Lum Avg [2, 8]	also measured
O=NN(CCCl)C(=O)NCCCl [Carmustine]	117%	102.90%	0.37	2.39	0.55	0.24						Split Luciferase Assay % Lum Set 1 [2]: 106.86%; Split Luciferase Assay %Lum Avg [2]: 104.93%; Split Luciferase Assay %Lum Set 2 [2]: 102.99%
O=NN(CCCl)C(=O)NC1CCCCC1 [Lomustine]	103%	109.33%	1.20	0.41	0.12	2.53						Split Luciferase Assay % Lum Set 1 [2]: 101.43%; Split Luciferase Assay %Lum Avg [2]: 116.25%; Split Luciferase Assay %Lum Set 2 [2]: 131.08%
CC(=O)O[C@H]1C(=O)[C@@]2(C)[C@H]([C@H](OC(=O)c3ccccc3)[C@]3(O)C[C@H](OC(=O)[C@H](O)[C@@H](NC(=O)c4ccccc4)c4ccccc4)C(C)=C1C3(C)C)[C@]1(OC(C)=O)CO[C@@H]1C[C@@H]2O [Paclitaxel]		114.27%	1.83		-1.03	-0.43	111%	1.59	87.29%	94.67%	90.98%	
O=C(O)CCCc1ccc(N(CCCl)CCCl)cc1 [Chlorambucil, reference compound]	105%	97.90%	-0.27	0.71	13.12	11.67			262.32%	243.43%	252.88%	Z-score (LCA primary screening) [2]: 12.39; EMax (% Luminescence) [2]: 252.88 % Luminescence; pEC50 ([2]; estimated, 8-point dose response 0.25-30 µM, n = 4 per concentration, library compounds, read-out: EC50): 4.78
CN(C)/N=N/c1[nH]cnc1C(N)=O [Dacarbazine]					3.01	2.70	106%	0.82		133.16%	135.23%	Luciferase Assay % Lum (full-length luciferase counter-screen) [1]: 99.29%; Luciferase Assay Z-score (full-length luciferase counter-screen) [1]: -0.09
Nc1ncn([C@@H]2O[C@H](CO)[C@@H](O)[C@H]2O)c(=O)n1 [Azacitidine]		93.68%	-0.81		-0.32	0.24	103%	0.41	95.99%	102.99%	99.49%	
CC1(C)CNc2cc(NC(=O)c3cccnc3NCc3ccncc3)ccc21 [MOTESANIB]		76.36%	-3.03		-1.77	-0.86		-0.04	78.05%	89.47%	83.76%	viability at 16 h, 30 µM (in vitro; Clone V cells): 99.7%
CS(=O)(=O)c1ccc(C(=O)Nc2ccc(Cl)c(-c3ccccn3)c2)c(Cl)c1 [GDC-0449]		95.45%	-0.58		3.10	2.02	107%	0.95		124.84%	131.61%	
CN(Cc1cnc2nc(N)nc(N)c2n1)c1ccc(C(=O)N[C@@H](CCC(=O)O)C(=O)O)cc1 [Methotrexate]		94.27%	-0.73		0.73	0.24		0.27	109.04%		106.01%	viability at 16 h, 30 µM (in vitro; Clone V cells): 102%
CC[C@]1(O)C[C@@H]2CN(CCc3c([nH]c4ccccc34)[C@@](C(=O)OC)(c3cc4c(cc3OC)N(C)[C@H]3[C@@](O)(C(=O)OC)[C@H](OC(C)=O)[C@]5(CC)C=CCN6CC[C@]43[C@@H]65)C2)C1 [Vinblastine sulfate]		109.75%	1.25		9.52	5.32	108%	1.05	217.75%	165.41%	191.58%	
NC(=O)Nc1cc(-c2cccc(F)c2)sc1C(=O)N[C@H]1CCCNC1 [AZD 7762]	102%	92.74%	-0.93	0.35	-1.38	-2.63			82.95%	67.62%	75.28%	
Nc1ncn([C@H]2C[C@H](O)[C@@H](CO)O2)c(=O)n1 [Decitabine, reference compound]		110.67%	1.37		6.88	7.95		0.87	185.13%	197.66%	191.40%	viability at 16 h, 30 µM (in vitro; Clone V cells): 106%; pEC50 [2]: 4.54; Z-score (LCA primary screening) [2]: 7.41; EMax (% Luminescence) [2]: 191.40 % Luminescence
CO[C@@]12[C@H](COC(N)=O)C3=C(C(=O)C(C)=C(N)C3=O)N1C[C@@H]1N[C@@H]12 [Mitomycin]	118%	110.98%	1.41	2.45	0.73	-0.01			109.04%	99.87%	104.45%	
O=c1cc(N2CCOCC2)oc2c(-c3ccccc3)cccc12 [LY 294002]		80.46%	-2.50		-0.94	-1.87	99%	-0.14	88.38%	76.98%	82.68%	
CC(C)C[C@H](NC(=O)[C@H](CCc1ccccc1)NC(=O)CN1CCOCC1)C(=O)N[C@@H](Cc1ccccc1)C(=O)N[C@@H](CC(C)C)C(=O)[C@@]1(C)CO1 [Carfilzomib]	108%	97.18%	-0.36	1.05	-0.68	-1.62			91.64%	80.10%	85.87%	
C#Cc1cccc(Nc2ncnc3cc(OCCOC)c(OCCOC)cc23)c1 [ERLOTINIB]		80.96%	-2.44		-0.76	-1.53		0.46	90.56%	81.14%	85.85%	viability at 16 h, 30 µM (in vitro; Clone V cells): 103%
CC/C(=C(\c1ccccc1)c1ccc(OCCN(C)C)cc1)c1ccccc1 [Tamoxifen citrate]							43.4%	-7.92				Luciferase Assay % Lum (full-length luciferase counter-screen) [1]: 59.05%; Luciferase Assay Z-score (full-length luciferase counter-screen) [1]: -5.24; Split Luciferase Assay % Lum Set 1 [2]: 4.67%; Split Luciferase Assay %Lum Avg [2]: 2.86%; Split Luciferase Assay %Lum Set 2 [2]: 1.04%; Split Luciferase Assay Z-score Set 1 [2]: -7.70; Split Luciferase Assay Z-score Set 2 [2]: -8.05
Cc1c[nH]c(-c2cnc(NCCNc3ccc(C#N)cn3)nc2-c2ccc(Cl)cc2Cl)n1 [CHIR 99021]		70.15%	-3.82		-4.98	-5.60	108%	1.07	38.37%	31.21%	34.79%	
